Data reported in patent publication US20250114338A1, “TETRAHYDRO-PYRIDO[3,4-b]INDOLE ESTROGEN RECEPTOR MODULATORS AND USES THEREOF” (Genentech, Inc., priority 2014, published 2025).

Test system: ER-alpha MCF7
Experiment: ER-alpha MCF7 HCS EC50; stated as measured by in vitro cell proliferation assays of Examples 902 and 903
Assay type: cell-based
Settings: Homo sapiens, MCF7, MCF7 cells; Table 2
Method in brief: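 MCF7 cells seeded 1000-2000 cells/well for 16 h, then treated with nine-point 1:2 DMSO dilution series in quadruplicate at 37 °C, 5% CO2 for 4 days. Viable cells quantified by CellTiter-Glo ATP luminescence; EC50 calculated. Controls: fulvestrant at final 100 nM, DMSO 0.2% v/v.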

| Compound | EC50 [nM] |
| --- | --- |
| C[C@H]1Cc2c([nH]c3ccc(F)cc23)[C@H](c2c(F)cc(NC3CN(CCCF)C3)cc2F)N1S(C)(=O)=O [Example 388, N-(3,5-difluoro-4-((1S,3S)-6-fluoro-3-methyl-2-(methylsulfonyl)-2,3,4,9-tetrahydro-1H-pyrido[3,4-b]indol-1-yl)phenyl)-1-(3-fluoropropyl)azetidin-3-amine] | 19 |
| C[C@@H]1Cc2c([nH]c3ccc(F)cc23)[C@@H](c2c(F)cc(NC3CN(CCCF)C3)cc2F)N1CC(F)F [Example 389, N-(4-((1R,3R)-2-(2,2-difluoroethyl)-6-fluoro-3-methyl-2,3,4,9-tetrahydro-1H-pyrido[3,4-b]indol-1-yl)-3,5-difluorophenyl)-1-(3-fluoropropyl)azetidin-3-amine] | 0.056 |
| C[C@H]1Cc2c([nH]c3ccc(F)cc23)[C@H](c2c(F)cc(NC3CN(CCCF)C3)cc2F)N1CC(F)F [Example 390, N-(4-((1S,3S)-2-(2,2-difluoroethyl)-6-fluoro-3-methyl-2,3,4,9-tetrahydro-1H-pyrido[3,4-b]indol-1-yl)-3,5-difluorophenyl)-1-(3-fluoropropyl)azetidin-3-amine] | 9.7 |
| C[C@@H]1Cc2c([nH]c3ccccc23)[C@@H](c2c(F)cc(OC3CN(CCCF)C3)cc2F)N1CC1(F)CCC1 [Example 393, (1R,3R)-1-(2,6-difluoro-4-((1-(3-fluoropropyl)azetidin-3-yl)oxy)phenyl)-2-((1-fluorocyclobutyl)methyl)-3-methyl-2,3,4,9-tetrahydro-1H-pyrido[3,4-b]indole] | 0.142 |
| C[C@@H]1Cc2c([nH]c3ccccc23)[C@@H](c2c(F)cc(OCCN3CC(CF)C3)cc2F)N1C[C@H](F)CO [Example 394, (S)-3-((1R,3R)-1-(2,6-difluoro-4-(2-(3-(fluoromethyl)azetidin-1-yl)ethoxy)phenyl)-3-methyl-3,4-dihydro-1H-pyrido[3,4-b]indol-2(9H)-yl)-2-fluoropropan-1-ol] | 0.23 |
| C[C@@H]1Cc2c([nH]c3ccccc23)[C@@H](c2c(F)cc(OCCN3CC(CF)C3)cc2F)N1C[C@@H](F)CO [Example 395, (R)-3-((1R,3R)-1-(2,6-difluoro-4-(2-(3-(fluoromethyl)azetidin-1-yl)ethoxy)phenyl)-3-methyl-3,4-dihydro-1H-pyrido[3,4-b]indol-2(9H)-yl)-2-fluoropropan-1-ol] | 0.053 |
| C[C@@H]1Cc2c([nH]c3cc(F)ccc23)[C@@H](c2c(F)cc(NC3CN(CCCF)C3)cc2F)N1CC(F)(F)F [Example 396, N-(3,5-difluoro-4-((1R,3R)-7-fluoro-3-methyl-2-(2,2,2-trifluoroethyl)-2,3,4,9-tetrahydro-1H-pyrido[3,4-b]indol-1-yl)phenyl)-1-(3-fluoropropyl)azetidin-3-amine] | 0.11 |
| C[C@H]1Cc2c([nH]c3cc(F)ccc23)[C@H](c2c(F)cc(NC3CN(CCCF)C3)cc2F)N1CC(F)(F)F [Example 397, N-(3,5-difluoro-4-((1S,3S)-7-fluoro-3-methyl-2-(2,2,2-trifluoroethyl)-2,3,4,9-tetrahydro-1H-pyrido[3,4-b]indol-1-yl)phenyl)-1-(3-fluoropropyl)azetidin-3-amine] | 33 |
| C[C@@H]1Cc2c([nH]c3cccc(F)c23)[C@@H](c2c(F)cc(NC3CN(CCCF)C3)cc2F)N1C[C@](C)(F)CO [Example 398, (S)-3-((1R,3R)-1-(2,6-difluoro-4-((1-(3-fluoropropyl)azetidin-3-yl)amino)phenyl)-5-fluoro-3-methyl-3,4-dihydro-1H-pyrido[3,4-b]indol-2(9H)-yl)-2-fluoro-2-methylpropan-1-ol] | 0.11 |
| C[C@H]1Cc2c([nH]c3cccc(F)c23)[C@H](c2c(F)cc(NC3CN(CCCF)C3)cc2F)N1C[C@@](C)(F)CO [Example 399, (R)-3-((1S,3S)-1-(2,6-difluoro-4-((1-(3-fluoropropyl)azetidin-3-yl)amino)phenyl)-5-fluoro-3-methyl-3,4-dihydro-1H-pyrido[3,4-b]indol-2(9H)-yl)-2-fluoro-2-methylpropan-1-ol] | 1.1 |
| C[C@@H]1Cc2c([nH]c3cccc(F)c23)[C@@H](c2c(F)cc(NC3CN(CCCF)C3)cc2F)N1C[C@@](C)(F)CO [Example 400, (R)-3-((1R,3R)-1-(2,6-difluoro-4-((1-(3-fluoropropyl)azetidin-3-yl)amino)phenyl)-5-fluoro-3-methyl-3,4-dihydro-1H-pyrido[3,4-b]indol-2(9H)-yl)-2-fluoro-2-methylpropan-1-ol] | 0.023 |
| C[C@H]1Cc2c([nH]c3cccc(F)c23)[C@H](c2c(F)cc(NC3CN(CCCF)C3)cc2F)N1C[C@](C)(F)CO [Example 401, (S)-3-((1S,3S)-1-(2,6-difluoro-4-((1-(3-fluoropropyl)azetidin-3-yl)amino)phenyl)-5-fluoro-3-methyl-3,4-dihydro-1H-pyrido[3,4-b]indol-2(9H)-yl)-2-fluoro-2-methylpropan-1-ol] | 2.4 |
| C[C@@H]1Cc2c([nH]c3ccccc23)[C@@H](c2c(F)cc(OCCN3CC(CF)C3)cc2F)N1C[C@H](CO)CF [Example 402, (R)-3-((1R,3R)-1-(2,6-difluoro-4-(2-(3-(fluoromethyl)azetidin-1-yl)ethoxy)phenyl)-3-methyl-3,4-dihydro-1H-pyrido[3,4-b]indol-2(9H)-yl)-2-(fluoromethyl)propan-1-ol] | 0.032 |
| C[C@@H]1Cc2c([nH]c3ccccc23)[C@@H](c2c(F)cc(OCCN3CC(CF)C3)cc2F)N1C[C@@H](CO)CF [Example 403, (S)-3-((1R,3R)-1-(2,6-difluoro-4-(2-(3-(fluoromethyl)azetidin-1-yl)ethoxy)phenyl)-3-methyl-3,4-dihydro-1H-pyrido[3,4-b]indol-2(9H)-yl)-2-(fluoromethyl)propan-1-ol] | 0.13 |
| C[C@@H]1Cc2c([nH]c3ccccc23)[C@@H](c2c(F)cc(N(C)C3CN(CCCF)C3)cc2F)N1CC(C)(C)F [Example 404, N-(3,5-difluoro-4-((1R,3R)-2-(2-fluoro-2-methylpropyl)-3-methyl-2,3,4,9-tetrahydro-1H-pyrido[3,4-b]indol-1-yl)phenyl)-1-(3-fluoropropyl)-N-methylazetidin-3-amine] | 0.745 |
| CC1(C)Cc2c([nH]c3ccccc23)[C@@H](c2c(F)cc(NC3CN(CCCF)C3)cc2F)N1CC(F)F [Example 405, (R)-N-(4-(2-(2,2-difluoroethyl)-3,3-dimethyl-2,3,4,9-tetrahydro-1H-pyrido[3,4-b]indol-1-yl)-3,5-difluorophenyl)-1-(3-fluoropropyl)azetidin-3-amine] | 0.23 |

Same assay, conditions: MCF7 cells; Table 2

| Compound | EC50 [nM] |
| --- | --- |
| C[C@@H]1Cc2c([nH]c3ccccc23)[C@@H](c2c(F)cc(OC3CN(C4CC(CF)C4)C3)cc2F)N1CC(C)(C)F (stereo partly drawn) [Example 391, (1R,3R)-1-(2,6-difluoro-4-((1- cis-(3-(fluoromethyl)cyclobutyl)azetidin-3-yl)oxy)phenyl)-2-(2-fluoro-2-methylpropyl)-3-methyl-2,3,4,9-tetrahydro-1H-pyrido[3,4-b]indole] | 0.15 |
| C[C@@H]1Cc2c([nH]c3ccccc23)[C@@H](c2c(F)cc(OC3CN(C4CC(CF)C4)C3)cc2F)N1CC(C)(C)F (stereo partly drawn) [Example 392, (1R,3R)-1-(2,6-difluoro-4-((1- trans-(3-(fluoromethyl)cyclobutyl)azetidin-3-yl)oxy)phenyl)-2-(2-fluoro-2-methylpropyl)-3-methyl-2,3,4,9-tetrahydro-1H-pyrido[3,4-b]indole] | 0.44 |
